In experiment [1] the test system is LPS-induced TNFα production in rat splenocytes. As to the kind of experiment: LPS-induced TNFα production in rat mononuclear spleen cells (rTNFα splenocytes). It is filed as cell-based. The settings on record: Splenocyte. The protocol:
(§1) • Human A2a and A2b receptor pharmacology: Chinese hamster ovary CHO-K1 cells stably expressing human A2a and A2b receptors were used to determine substances agonistic potency and intrinsic activity. […] The signal corresponding to adenosine at 100 μmol/L was used to define 100% intrinsic activity. • Human A3 receptor pharmacology: A3 receptor Gi coupling was measured by GTPγ ^35[S] filter assay at serial dilutions of compound using membranes from Perkin-Elmer. The signal corresponding to the maximal response of NECA at 100 μmol/L was set to 100% intrinsic activity. • Lipopolysaccharide (LPS)-induced TNFα production in primary human peripheral blood mononuclear cells (hTNFα PBMC) and rat mononuclears (rTNFα splenocytes): Human PBMC and rat mononuclear spleen cells were incubated with serial dilutions of compound and stimulated with LPS.
Procedures and assays were run in R10 buffer (RPMI 1640 Medium supplemented with GlutaMAX™ and HEPES (GIBCO-BRL), 10% fetal calf serum, penicillin and streptomycin (each 5000IU/ml)). Human PBMC were purified from heparinised blood by Ficoll separation (Ficoll, Amersham Pharmacia Biotech AB, Cat: 17-1440-03, Lot: 312170) and rat mononuclear cells were collected after rat spleen perfusion. Both cell preparations were followed by hypotonic lysis of residual erythrocytes. Serial dilutions of compounds were pre-incubated with 200 000 cells/well (96-well plate) for 45min in 37 °C (190µl). Cells were stimulated by 10µl LPS (final concentration 0.5ng/ml human and 150ng/ml rat; SIGMA Cat: L-4516, Lot: 104K4036) for 18h at 37 °C. TNFα release was measured by ELISA (^TmR&D Systems plates) according to the manufacturer’s instructions in cell free supernatant.

A further experiment addresses T1, A3 (Homo sapiens, UniProt P0DMS8).
T1 sequence (P0DMS8 1-318): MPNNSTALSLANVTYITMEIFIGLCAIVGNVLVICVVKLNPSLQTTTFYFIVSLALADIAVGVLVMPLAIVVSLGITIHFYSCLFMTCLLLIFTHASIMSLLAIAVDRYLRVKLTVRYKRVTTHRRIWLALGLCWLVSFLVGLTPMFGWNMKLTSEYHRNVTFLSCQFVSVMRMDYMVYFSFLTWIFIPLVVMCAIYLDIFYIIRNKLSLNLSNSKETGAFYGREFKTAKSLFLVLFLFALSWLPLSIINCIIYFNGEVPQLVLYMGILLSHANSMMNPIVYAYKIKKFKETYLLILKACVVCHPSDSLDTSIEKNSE
Kind of experiment: Human A3 receptor pharmacology: GTPγ35[S] filter assay on membranes. The class given is biochemical. Also on record: purchased Perkin Elmer ES-012-M400UA. The settings on record: average (SD). The protocol:
as §1
A3 receptor Gi coupling was measured by GTPγ ^35[S] filter assay using membrane from Perkin Elmer (ES-012-M400UA). Membranes (7.5μg/ml final concentration) were incubated with substances in serial dilutions (50mM Hepes, pH 7.4, 5mM MgCl2, 100mM NaCl, 0.01% BSA, 100μM DTT and 25μM GDP) including 1nM of GTPγ ^35[S] (Perkin Elmer - NEG030H) for 2h in room temperature in the assay plate (Corning – 3365). […] After adding 50µl scintillant/well, sealed plates were counted. […]

For the next experiment, the target named is A2a (Homo sapiens, UniProt P29274). Kind of experiment: Human A2a receptor pharmacology: cAMP Alphascreen in CHO-K1 cells. The class given is cell-based. Also on record: expressed in transfected cells; host or cells: CHO-K1. The protocol: as §1
Chain of A2a (P29274 whole entry): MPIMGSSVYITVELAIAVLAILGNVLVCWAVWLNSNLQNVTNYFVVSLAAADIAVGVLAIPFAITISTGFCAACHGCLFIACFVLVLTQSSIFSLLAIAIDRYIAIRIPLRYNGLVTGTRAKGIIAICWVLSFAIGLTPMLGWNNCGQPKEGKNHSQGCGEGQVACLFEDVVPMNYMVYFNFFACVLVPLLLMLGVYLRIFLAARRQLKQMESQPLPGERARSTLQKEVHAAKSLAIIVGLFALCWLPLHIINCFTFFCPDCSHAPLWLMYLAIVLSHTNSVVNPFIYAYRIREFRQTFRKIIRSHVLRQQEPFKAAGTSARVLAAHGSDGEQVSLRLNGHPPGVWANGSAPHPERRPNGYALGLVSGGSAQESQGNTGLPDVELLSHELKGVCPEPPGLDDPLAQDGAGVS
Chinese hamster ovary CHO-K1 cells stably expressing human A2a and A2b receptors were stored as 1ml aliquots at -150 °C in freezing medium, thawed immediately prior to assay. […] Cells (10000 cells/well) were incubated with test compounds prepared as serial dilutions. Potency (EC50) and efficacy (% of maximal response) were calculated from data fitted to a 4-parameter logistic function. The signal of 10µM NECA represented the maximal cAMP response (i.e. 100% of efficacy) produced by these cells.
Background: In Alpha technology, singlet oxygen from a donor bead excites a nearby acceptor bead.

We go through 1 compound from article PMC4492750, “The discovery of a selective and potent A2a agonist with extended lung retention” (Pharmacology Research & Perspectives, 2015).

Some results are limits rather than exact numbers.

As to `CCNC(=O)[C@H]1O[C@@H](n2cnc3c(NC(CC)CC)nc(NCCNC(=O)Nc4cc[n+](C)cc4)nc32)[C@H](O)[C@@H]1O` [Compound 2, (2S,3S,4R,5R)-N-ethyl-5-[6-(1-ethylpropylamino)-2-[2-[(1-methylpyridin-1-ium-4-yl)carbamoylamino]ethylamino]purin-9-yl]-3,4-dihydroxy-tetrahydrofuran-2-carboxamide], the EC50 in experiment [1] (Rattus norvegicus, read-out: EC50, inhibition of LPS stimulated TNFα release in rat splenocytes) was 0.6 nM; at A3 it was 6600 nM; at A2a (cAMP generation, average (SD)), 1.4 nM. The compound also gave an IC50 in experiment [1] (LPS-stimulated TNFα release, rat splenocytes, average (SD)) of 0.6 nM. Also, the Emax worked out at 57.4% in experiment [1] (LPS-stimulated TNFα release, rat splenocytes, average (SD), read-out: rTNFα splenocytes Intrinsic activity) and 97.9% on A2a (CHO-K1, 100% = 10 μmol/L NECA, average (SD), read-out: A2a human CHO-K1 cells Intrinsic activity). Further, the “Selectivity for A2a over A1, A2b and A3” value at A2a (human adenosine receptors) is recorded as above 1000 fold.

The term EC50 denotes the midpoint of the concentration-response curve. What is called IC50 is the concentration at which inhibition is half-maximal.
